# Results reported in US9909104B2, “Generating definitive endoderm and pancreatic progenitor cells” (The J. David Gladstone Institutes, a testamentary trust …, priority 2013, dated 2018).
# Key:
# cPE cells = assay: Maturation of cPE cells into C-peptide positive beta-like cells in vitro; type: cell-based, human; conditions: supplemented individually to basal pancreatic differentiation media
# Text: Full maturation towards glucose responsive cells is optimally illustrated by transplantation of in vitro differentiated pancreas endoderm progenitor cells into immune compromised mice. […] While C-peptide positive cells expressing high levels of PDX1 were consistently observed after 10-14 days in culture (FIG. 11B), the relatively low number of cells (˜0.5%) indicated further optimization of conditions may improve the frequency of conversion to functional beta-like cells. Chemical compounds able to promote differentiation of definitive endoderm (Borowiak et al. (2009)) and PDX1^+ progenitors (Chen et al. (2009) have been identified previously. However, molecules directing the final steps of differentiation into beta-like cells have not been uncovered, likely due to difficulties in generating and maintaining sufficient numbers of differentiation-competent pancreatic endodermal progenitor cells.
# A chemical screen was performed with the intent of identifying factors that would result in the more efficient development of C-peptide positive cells from expanded cPE cells.
# γ-secretase = conditions: total β-amyloid; cited from earlier work
# presenilase activity = conditions: At higher concentrations (20-4000/1); cited from earlier work
# [1] = test system: definitive endoderm-like cells (DELCs); assay: Induction of DELCs into Pdx1+/Nkx6.1+ pancreatic progenitor-like cells (step III); type: cell-based, mouse; conditions: screen of 400 compounds, confirmed in larger-well cultures
# Description: At the end of treatment, lineage specific markers were analyzed by immunostaining and/or real-time PCR.
# Primary antibodies used were Sox17 (R&D), Foxa2 (Millipore), Pdx1 (R&D), Hnf6 (Santa Cruz), Pax6 (Covance), Sox9 (Santa Cruz), Nkx6.1 (Developmental Studies Hybridoma Bank), Insulin (Dako), Glucagon (Sigma), Somatostatin (Abcam), Amylase (Abcam), and CK19 (Abcam). Nuclei were visualized by DAPI (Sigma-Aldrich) staining Images were captured using a Nikon Eclipse TE2000-U microscope.
# An available drug collection of 400 compounds in the 48-well format was screened to identity small molecules that induce high percentages of Pdx1^+/Nkx6.1^+ cells in DELC populations. Med-III medium (DMEM supplemented with 1×B27, 2 mM Glutamax) was used as the basal condition and double staining of Pdx1 and Nkx6.1 at 4 days post-induction was used as the readout.
# Induction of Pdx1 and Nkx6.1 expression by small molecules is referred herein to the “third step” (step III) of pancreatic induction.
# [2] = test system: histone deacetylases (HDACs); conditions: isoform not stated; read-out: IC50 (histone deacetylase); cited from earlier work
# secondary MEF cells = assay: Small molecules in first/second reprogramming steps, Pdx1/Nkx6.1 double staining on day 16; type: cell-based, mouse; conditions: 1 μM Bix-01294 D0 to D6; 280 μM pVc D0 to D12; readout day 16
# Description: The inventors then hypothesized that overlapping lineage-specific patterning conditions based on small molecules with early reprogramming would enhance pancreatic induction. To this end, further screens of the inventors' drug collection were performed during the first- and second-step inductions, with double staining of Pdx1 and Nkx6.1 at the end of the third step (day 16) as a readout. […] In particular, 1 μM Bix-01294 (a G9a histone methyltransferase inhibitor), when added from D0 to D6, and 280 μM pVc, when added from D0 to D12, increased the number of Pdx1+/Nkx6.1+ colonies to about 3 fold and 4 fold respectively (FIG. 4D-4E).
# [3] = test system: pancreatic progenitor-like cells (PPLCs); assay: Maturation of PPLCs into pancreatic-like cells (step IV, day 25); type: cell-based, mouse; conditions: 5 μM SB203580 or 280 μM pVc used individually, D16-D25, day 25
# Description: The pancreatic progenitor-like cells generated as described herein were treated with Med-IV medium containing laminin, nicotinamide, and B27 etc. as previously reported (Schroeder et al., 2006) to determine whether those PPLCs can be further differentiated into mature pancreatic like cells. After 9 days of culture in this medium, a small population (about 0.5%) of insulin and C-peptide double-positive cells was detected.
# To improve efficiency of pancreatic maturation, the inventors' drug collection was further screened in a “fourth” step (step IV) to identify compounds that increase the percentage of cells that express insulin and Pdx1 on day 25.
# [4] = test system: Dox-inducible secondary mouse embryonic fibroblasts (MEFs); assay: Direct reprogramming of secondary MEFs into definitive endoderm-like cells (Sox17/Foxa2); type: cell-based; conditions: 1 μM Bix-01294 D0-D6; 280 μM pVc D0-D12
# Description: Dox-inducible secondary mouse embryonic fibroblasts (MEFs) (cells at passage 3-4 were regularly used) were plated on Matrigel-coated culture dishes at a cell density of 1×10^4 cells/cm^2. Cells were cultured in MEF medium (Dulbecco's modified Eagle's medium with 10% fetal bovine serum and 2 mM Glutamax) for an additional day. The medium was then changed to Med I (Knock-out DMEM with 10% knock-out serum replacer, 5% FBS, 2 mM Glutamax, 0.1 mM non-essential amino acids (NEAA), and 0.055 mM β-mercaptoethanol) supplemented with 4 μg/ml Dox, 50 ng/ml Activin A and 1 mM LiCl for the indicated time. […] All reagents were purchased from Invitrogen if not specified, and all cytokines were from R&D Systems. […]
# Total RNA was extracted using the RNeasy Plus Mini Kit in combination with QIAshredder (Qiagen). […] Expression of pluripotency and lineage-specific marker genes was analyzed by real-time PCR with iQ SYBR Green Supermix (Bio-Rad). […]
# To test this hypothesis, conditions were evaluated in which definitive endoderm induction factors (Activin/Li) were added to fibroblasts either after (Approach-I) or during (Approach II) iPSC factor expression, using Sox17 and Foxa2 expression as a measure of DELC induction (FIG. 1A).
# [5] = test system: Human foreskin fibroblasts; assay: Conversion of human fibroblasts into definitive endodermal progenitor (cDE) colonies
# SAPK2/p38 = SAPK2/p38 (Homo sapiens, UniProt Q16539); conditions: CK1 and ALK5 inhibitor; cited from earlier work
# [6] = test system: HDAC activity in HeLa extracts; conditions: read-out: IC50 for inhibition of HDAC activity; cited from earlier work
# SAPK2/p38, sequence (Q16539 whole entry): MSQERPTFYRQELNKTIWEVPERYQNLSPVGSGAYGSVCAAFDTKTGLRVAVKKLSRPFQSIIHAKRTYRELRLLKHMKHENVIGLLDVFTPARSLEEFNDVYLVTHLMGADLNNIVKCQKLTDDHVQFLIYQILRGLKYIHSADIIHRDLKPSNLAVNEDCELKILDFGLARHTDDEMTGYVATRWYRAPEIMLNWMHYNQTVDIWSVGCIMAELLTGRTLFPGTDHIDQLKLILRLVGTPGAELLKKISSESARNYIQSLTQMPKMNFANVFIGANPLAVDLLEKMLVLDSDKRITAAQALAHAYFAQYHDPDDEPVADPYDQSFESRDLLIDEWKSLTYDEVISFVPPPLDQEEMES
molecule,measurement,setting,value
C[C@H](NC(=O)Cc1cc(F)cc(F)c1)C(=O)N[C@H]1N=C(c2ccccc2)c2ccccc2N(C)C1=O [Compound E],effect on percentage of C-peptide positive cells,cPE cells,effective in increasing
same,IC50,γ-secretase,0.0003 µM
same,effect on presenilase activity,presenilase activity,only weakly affects
Cc1c(C(=O)Nc2ccc(N3C[C@@H](C)O[C@@H](C)C3)nc2)cccc1-c1ccc(OC(F)(F)F)cc1 [LDE225],hit confirmation: increase of Pdx1 and/or Nkx6.1 expression,[1],Confirmed hits
"CC(/C=C/C(=O)NO)=C\[C@@H](C)C(=O)c1ccc(N(C)C)cc1 [Trichostatin A, (R,2E,4E)-6-(4-(dimethylamino)benzoyl)-N-hydroxy-4-methylhepta-2,4-dienamide]",IC50,[2],~0.0018 µM
2-phospho-L-ascorbic acid trisodium salt [pVc],hit confirmation: increase of Pdx1 and/or Nkx6.1 expression,[1],Confirmed hits
same,number of Pdx1+/Nkx6.1+ colonies,secondary MEF cells,~4 fold
same,number of insulin+/Pdx1+ double-positive cells,[3],significantly increased
same,numbers of Sox17 and Foxa2 single positive and double positive cells,[4],no significant influence
"CCNC(=O)[C@H]1O[C@@H](n2cnc3c(N)ncnc32)C(O)C1O (stereo partly drawn) [NECA, 5′-N-ethylcarboxamidoadenosine]","further increase of conversion rate over improved condition (NaB, Par, RG)",[5]; FOXA2 positive colonies day 28,2 fold
same,increase over the basal protocol,"[5]; NECA together with NaB, Par, RG108",5 fold
same,"FOXA2 and SOX17 double-positive cDE colonies from 400,000 human fibroblasts","[5]; optimized condition (NaB, Par, RG108, NECA)",approximately fifty
COc1cc2nc(N3CCCN(C)CC3)nc(NC3CCN(Cc4ccccc4)CC3)c2cc1OC [Bix-01294],number of Pdx1+/Nkx6.1+ colonies,secondary MEF cells,about 3 fold
same,numbers of Sox17 and Foxa2 single positive and double positive cells,[4],no significant influence
"Nc1ccccc1NC(=O)c1ccc(CNc2nccc(-c3cccnc3)n2)cc1 [MGCD0103, N-(2-aminophenyl)-4-[[(4-pyridin-3-ylpyrimidin-2-yl)amino]methyl]benzamide]",IC50,[2],~0.1 µM
"C[S+]([O-])c1ccc(-c2nc(-c3ccc(F)cc3)c(-c3ccncc3)[nH]2)cc1 (stereo not drawn) [SB203580, 4-(4-fluorophenyl)-2-(4-methylsulfinylphenyl)-5-(4-pyridyl)-1H-imidazole]",number of insulin+/Pdx1+ double-positive cells,[3],significantly increased
"NC(=O)c1ccc(-c2nc(-c3ccc4c(c3)OCCO4)c(-c3ccccn3)[nH]2)cc1 [D 4476, 4-[4-(2,3-Dihydro-1,4-benzodioxin-6-yl)-5-(2-pyridinyl)-IH-imidazol-2-yl]benzamide]",selectivity over SAPK2/p38,SAPK2/p38,greater than 20 fold
"Nc1ccccc1NC(=O)CCCCCCC(=O)Nc1ccccc1 [BML-210, N1-(2-aminophenyl)-N8-phenyl-octanediamide]",IC50,[6],~80 µM
"Cc1cccc(-c2nn(C(=S)Nc3ccccc3)cc2-c2ccnc3ccccc23)n1 [A83-01, 3-(6-Methyl-2-pyridinyl)-N-phenyl-4-(4-quinolinyl)-1H-pyrazole-1-carbothioamide]",hit confirmation: increase of Pdx1 and/or Nkx6.1 expression,[1],Confirmed hits
"COC(=O)C1=C(C)NC(C)=C([N+](=O)[O-])C1c1ccccc1C(F)(F)F (stereo not drawn) [BayK-8644, 3-pyridinecarboxylic acid, 1,4-dihydro-2,6-dimethyl-5-nitro-4-(2-(trifluoromethyl)phenyl), methyl ester]",effect on percentage of C-peptide positive cells,cPE cells,effective in increasing
O=C1O[C@H]([C@@H](O)CO)C(O)=C1O [Vitamin C],effect on percentage of C-peptide positive cells,cPE cells,effective in increasing
"CC1(C)NC(=O)C(CCCCCC(=O)[C@H]2CO2)NC(=O)C2CCCN2C(=O)[C@@H](Cc2ccccc2)NC1=O (stereo partly drawn) [Chlamydocin, (3R)-3-benzyl-6,6-dimethyl-9-[6-[(2R)-oxiran-2-yl]-6-oxohexyl]-1,4,7,10-tetrazabicyclo[10.3.0]pentadecane-2,5,8,11-tetrone]",IC50,[2],~0.00015 µM
"CC1NC(=O)C(C)NC(=O)C2CCCN2C(=O)C(CCCCCCC(=O)C2CO2)NC1=O [HC Toxin, (6R,9S,14aR)-3,6R-dimethyl-9S-(7-((S)-oxiran-2-yl)-7-oxoheptyl)decahydropyrrolo[1,2-a][1,4,7,10]tetraazacyclododecine-1,4,7,10-tetranone]",IC50,[2],0.03 µM
"Nc1ccccc1NC(=O)c1ccc(CNC(=O)OCc2cccnc2)cc1 [MS-27-275, pyridin-3-ylmethyl-N-[[4-[(2-aminophenyl)carbamoyl]phenyl]methyl]carbamate]",IC50,[2],0.1 to 1 µM
